From US20070161592A1, “Method of treating fear” (priority 2005, published 2007)
“Also recorded” adds a separate entry of the source.

Columns and labels:
[1] = tested on: NR2A, NR1, GluR1, and actin; assay: Western blot of other membrane proteins in ACC after siRNA electroporation; type: in vivo, mouse; conditions: four days after electroporation, vs control siRNA
Description: Equal amounts of protein from the ACC and hippocampus were separated and electrotransferred onto PDVF membranes (Invitrogen), which were probed with anti-NR2A, anti-NR2B (Chemicon), and anti-PSD-95 (ABR) and with β-actin (Sigma) as a loading control. The membranes were incubated with horseradish peroxidase-conjugated secondary antibodies (anti-mouse IgG for PSD-95 and anti-rabbit IgG for the other primary antibodies), and bands were visualized using an ECL system (Perkin Elmer). Synaptosomal membrane fractions (LP1) were prepared as previously described (Dunah and Standaert, 2001) and solubilized using 1% SDS in TEVP buffer: 10 mM Tris-HCl, pH 7.4, 1 mM EDTA, 1 mM EGTA, 1× protease inhibitor cocktail (Sigma), and 1× phosphatase inhibitor cocktail 1 and 2 (Sigma). […] Results are expressed as means±SEM. […]
To inhibit NR2B expression specifically in the prefrontal cortex, including the ACC, siRNA was bilaterally delivered against NR2B with a reporter plasmid encoding EGFP by microelectroporation (Wei et al., 2003) (FIG. 8A). […] The expression levels of other NMDAR subunits (NR2A and NR1) and AMPA receptor subunit GluR1 were measured, and actin was used as a control in the ACCs of NR2B siRNA and control siRNA electroporated mice.

C57BL/6 male mice = assay: Mouse fear conditioning (contextual and auditory fear memory, freezing); type: in vivo
Description: siRNA corresponding to NR2B (sense 5′-GGAUGAGUCCUCCAUGUUCtt-3′ and antisense 5′-GAACAUGGAGGACUCAUCCtt-3′, Silencer Pre-designed siRNA, ID #61879, Ambion, Tex.) was delivered into the ACC by microelectroporation, which was performed as described previously (Wei et al., 2003). Briefly, 0.5 μl of 1:4 mixture of siRNA (2.5 μg/μl) and pEGFP-N1 (1 μg/μl) was injected into the ACC (0.7 mm anterior to Bregma, ±0.4 mm lateral from the midline, 1.8 mm beneath the surface of the skull) (Franklin and Paxinos, 1997) through a 30-gauge injection cannula. Then, square-wave electric pulses (five pulses at 1 Hz, 50 ms duration at 40 V) were delivered through a pair of silver electrodes placed 2 mm anterior and 1 mm posterior to the injection site using a S48 Stimulator (Grass Instruments). Control groups consisted of a group receiving only the electroporation shock, pEGFP-N1, or Silencer Negative control siRNA (#4611, Ambion) and pEGFP-N1. Western blot analysis was performed 4 days after electroporation and electrophysiological recordings were taken 2-4 days after.
Under ketamine and xylazine anesthesia, 24-guage guide cannulas were implanted bilaterally into the ACC (0.7 mm anterior to Bregma, ±0.4 mm lateral from the midline, 1.7 mm beneath the surface of the skull) or dorsal hippocampus (2.0 mm posterior to Bregma, ±1.5 mm lateral from the midline, 1.9 mm beneath the surface of the skull). Mice were given at least 2 weeks to recover after cannula implantation. All procedures were performed in accordance with the requirements of the Animal Studies Committee at the University of Toronto. The 30-gauge injection cannula was 0.1 mm lower than the guide. For intra-ACC infusion, 0.5 μl Ro25-6981 (4 μg/μl) or saline was delivered bilaterally within 90 s using a pump. 15 min later mice were conditioned by one pairing of a tone (2.8 kHz, 85 dB, 30 s) and a foot shock (0.75 mA, 2 s) that terminated at the same time as the tone. For intra-hippocampal infusion, 0.5 μl Ro25-6981 (10 μg/μl) or saline was delivered bilaterally within 90 s. 15 min later mice received one pairing of a tone and a foot shock, as above. One day later, animals were exposed to the conditioning context without a tone for 3 min and freezing responses were scored automatically (Freeze view software, Actrimetrics, Wilmette, Ill.).
NR2B subunit inhibition in adult mice was examined to determine whether this impairs the formation of contextual fear memory. Three days after bilateral siRNA electroporation, mice were trained (or conditioned) and then tested for contextual fear memory by assessing freezing behavior in the same environmental context after 24 hours. There was no difference in baseline freezing or in freezing immediately following the shock/tone pairing between groups; however, there was a significant difference between groups when tested in the contextual environment one day later (n=8 for EGFP only; n=10 for control siRNA; n=8 for shock only; n=11 for NR2B siRNA; one-way ANOVA, p=0.005; FIG. 8C). […] Since the activation of NR2B was suppressed throughout the training and memory test, the roles of NR2B during the acquisition and retrieval of fear memory cannot be distinguished. Recently, electric stimulation of the ACC was reported to induce fear memory one and three days after stimulation (Tang et al., 2005), which implies that the ACC may be involved in the acquisition of fear memory. To directly address this issue, the effect of NR2B blockade using Ro25-6981 was examined. […] In order to rule out any locomotor side-effects, locomotor activity in the open field was tested after bilateral ACC microinjection of Ro25-6981 (n=4) or vehicle (n=4).

[2] = mice, 5 μg in 0.5 μl bilaterally into dorsal hippocampi, tested one day after training

Compound	expression levels of NR2A, NR1, GluR1, and actin [1]	baseline freezing or freezing immediately following the shock/tone pairing (C57BL/6 male mice; bilateral siRNA electroporation into ACC)	contextual fear memory (freezing in the contextual environment) (C57BL/6 male mice; bilateral siRNA electroporation into ACC, trained three days later, tested after 24 hours)	auditory fear memory (C57BL/6 male mice; mice, 2 μg in 0.5 μl per side into the bilateral ACC)	auditory fear memory (C57BL/6 male mice; [2])	contextual fear memory (C57BL/6 male mice; [2])	baseline or immediate freezing behavior (C57BL/6 male mice; mice, ACC microinjection)	baseline or immediate freezing behavior (C57BL/6 male mice; mice, hippocampal microinjection)	contextual fear memory (freezing in the contextual environment) (C57BL/6 male mice; mice, microinjection 2 μg in 0.5 μl per side into the bilateral ACC before conditioning)
NR2B siRNA: siRNA corresponding to NR2B, sense 5′-GGAUGAGUCCUCCAUGUUCtt-3′, antisense 5′-GAACAUGGAGGACUCAUCCtt-3′, Silencer Pre-designed siRNA ID #61879, Ambion (sense GGAUGAGUCCUCCAUGUUCTT; antisense GAACAUGGAGGACUCAUCCTT; chemistry not given here)	not significantly changed	no difference	impaired contextual fear memory; also recorded: significantly less freezing	–	–	–	–	–	–
C[C@@H](CN1CCC(Cc2ccccc2)CC1)[C@@H](O)c1ccc(O)cc1 [Ro25-6981]	–	–	–	no difference in auditory fear memory	did not affect	did not impair contextual fear memory; also recorded: did not affect	did not significantly affect	did not significantly affect	decreased contextual fear memory; also recorded: significant reduction in freezing
